{"source": "patent US10208007B2", "about": "“Use of strigolactones and strigolactone analogs for treating proliferative conditions” (The State of Israel, Ministry of Agriculture & Rural …, priority 2011, dated 2019)", "key": {"Cyclin B1 mRNA": {"tested_on": "Cyclin B1 mRNA", "experiment": "Quantitative Real-time PCR of Cyclin B1 mRNA", "assay_type": "cell-based, human", "description": "Primers were designed using PrimerQuest software (Integrated DNA Technologies). RNA was extracted using Trizol (Invitrogen, Carlsbad, Calif., USA) using the manufacturer's protocol. 1 μg RNA was reverse-transcribed in a total volume of 20 μl using the Superscript First strand cDNA synthesis kit (Invitrogen). PCR was performed in triplicate using an ABI-Prism 7900 instrument (Applied Biosystems, Foster City, Calif.) and SYBR Green I detection (Applied Biosystems) according to the manufacturer's protocol. The expression of each target gene was normalized to the expression of GAPDH RNA and is presented as the ratio of the target gene to GAPDH RNA, expressed as 2-ΔCt, where Ct is the threshold cycle and ΔCt=Ct Target−Ct GAPDH.\nNo change in cyclin B1 levels were detected at earlier time points. The dephosphorylation of Cdk1 (Cdc2) at Thr14 is a critical event for its activation, permitting mitotic entry. Cdk1 protein levels remained unaltered, as did pT14Cdc2 levels (FIG. 17B). Quantitative Real-time PCR was carried out to determine whether Cyclin B1 inhibition was partially at the transcriptional level."}, "MDA-MB-436 [1]": {"tested_on": "MDA-MB-436", "experiment": "Crystal violet monolayer growth assay", "assay_type": "cell-based, human", "conditions": "for IC50: after 7 days, read-out: IC50 of long-term proliferation", "description": "(§1) Cells were seeded at 1500 (MDA-MB-231, MDA-MB-436 and BJ fibroblasts) or 4000 cells per well of 96 well plates. […] At the indicated time points, individual plates were fixed and stained with crystal violet-methanol solution (50 μl per well) for 15 minutes, washed several times with distilled water and plates were air dried overnight. Sodium citrate solution (0.1M) was used to solubilize bound crystal violet and optical densities were measured at 560 nm (Glomax®-Multi Detection plate reader, Promega).\n(§2) Cells (MDA-MB-231, MDA-MB-436 and BJ fibroblasts) were seeded at 1500 or 4000 cells per well of 96 well plates. […] At the indicated time points, individual plates were fixed and stained with crystal violet solution (0.5% crystal violet and 25% methanol) for 15 min, washed several times in distilled water and air dried overnight. Sodium citrate solution (0.1M) was used to solubilize bound crystal violet and optimal densities were measured at 560 nm (Glomax®—Multi Detection plate reader, Promega).\n(§3) The effect of GR-24 (FIG. 3) on long-term cancer cell line growth was assessed by crystal violet assay. MCF-7 (estrogen receptor positive (ER+), tumorigenic, nonmetastatic), (A) MDA-MB-231, MDA-MB-436 (ER negative (−), metastatic) and BJ fibroblasts (normal, non-neoplastic line) were treated with GR-24 at a dose range of 0.5 to 10 ppm (1.65-33 μM). Growth was monitored for up to 10 days. At the indicated time points, plates were stained with crystal violet. Data are reported as the Percent Absorbance (560 nm) of vehicle control. Average±standard deviations (SD). Student's t-test (2-tailed, paired) was used to evaluate GR-24 treated groups with vehicle (control) groups at final time point and regarded as being significant if p<0.05 (*), very significant if p<0.01 (**), extremely significant if p<0.001 (***). (B) Is a graph showing the light absorbance reading (560 nm) after 7 days exposure to the indicated doses of GR-24. Data expressed as a percentage of vehicle controls. Average of triplicate samples+SD. Horizontal line (---) marks 50% reduction in Absorbance (560 nm) relative to vehicle controls."}, "MCF-7 [2]": {"tested_on": "MCF-7", "experiment": "Crystal violet monolayer growth assay", "assay_type": "cell-based, human", "description": "as §1, §2, §3"}, "MDA-MB-436 [3]": {"tested_on": "MDA-MB-436", "experiment": "Cell cycle analysis (propidium iodide, flow cytometry)", "assay_type": "cell-based, human", "conditions": "10 ppm, 48 hours", "description": "(§4) Adherent cells were trypsinyzed, washed twice with PBS and filtered through a […] cell sieve. DNA content was assessed by flow cytometry. Cells were seeded at densities of 1.5×10^5 cells (MDA-MB-231, MDA-MB-436), or 4×10^5 cells (MCF-7 and MCF10A), or 2×10^5 cells (SW480, HT-29), or 5×10^5 cells (HCT116), per well in DMEM with 10% FBS in 6-well plate culture dishes. […] After 48 hours, cells were washed twice with PBS (pH 7.4), centrifuged at 360 g for 10 minutes at 4° C., and fixed in chilled ethanol (70%; v/v in PBS) with gentle vortex mixing. To determine their DNA contents, the cells were stained with 40 μg/ml propidium iodide (hereinafter PI) and analyzed using a FACSCalibur flow cytometer and CellQuest analysis software (Becton Dickinson, San Jose, Calif.). Where phosphoHistone-H3 staining was carried out, cells were incubated with polyclonal antibody against phosphoHistone H3 and then with secondary Goat anti-rabbit IgG-conjugated to FITC prior to PI staining."}, "MCF-7 [4]": {"tested_on": "MCF-7", "experiment": "Cell cycle analysis (propidium iodide, flow cytometry)", "assay_type": "cell-based, human", "conditions": "10 ppm, 48 hours", "description": "as §4"}, "MDA-MB-231 cells": {"tested_on": "MDA-MB-231 cells", "experiment": "Hoechst 33342 staining", "assay_type": "cell-based, human", "conditions": "48 hours", "description": "MDA-MB-231 cells were seeded out into 96 well plates in triplicate at 3000 cell per well. […] After 48 hours, the medium was aspirated off and 100 μl of Hoechst dye (2 μg/ml), diluted with the medium, was added to the cells and incubated for 15 minutes. Stained cells were observed under a fluorescence microscope (Zeiss 5 Instruments, Thornwood, N.Y.)."}, "Candida oleophila": {"tested_on": "Candida oleophila", "experiment": "Yeast cell culture growth (OD)", "assay_type": "cell-based", "conditions": "10 μM, apparent 8 hours after application", "description": "Saccharomyces cerevisiae and Candida oleophila yeast cells were grown overnight in a reach nutrient media at 28° C., at 150 rpm. Following, they were diluted to 0.4 OD in low nutrient media (Lily) and were divided into 96 wells. The cells were treated with GR-24 or ST-362, at the indicated concentrations. Cell culture growth was monitored every hour for 17 hours, at 28° C., with gentle shake before each OD read. OD was determined using fluorometer. Statistical differences between curves were analyzed using compareGrowthCurves function from the Statistical Modeling package, statmod (http://bioinf.wehi.edu.au/software/compareCurves/), significance was determined once P≤0.05."}}, "note": "“And” between values parts separate entries of the source, which are not always exact repeats. Identical values can stand only once. Like-named read-outs stand apart in the source and are kept apart here."}
{"smiles": "CC1=CC(O/C=C2\\Cc3c(n(C)c4cc(-c5cccs5)ccc34)C2=O)OC1=O", "note": "(racemic) [MEB-55, (±) 2E-4-methyl-2-(4-methyl-5-oxo-2,5-dihydrofuran-2-yloxymethylene)-6-thiophen-2-yl-1,4-dihydro-2H-cyclopenta[b]indol-3-one]", "values": [{"measurement": "Cyclin B1 mRNA compared to vehicle controls", "setting": "Cyclin B1 mRNA; A549, 10 ppm", "result": "two fold decrease"}, {"measurement": "Cyclin B1 mRNA compared to vehicle controls", "setting": "Cyclin B1 mRNA; HCT116, 10 ppm", "result": "two fold decrease"}]}
{"smiles": "CC1=C[C@H](O/C=C2/C(=O)O[C@@H]3c4ccccc4C[C@H]23)OC1=O", "note": "(relative stereo) [GR-24, (3aR*,8bS*,E)-3-(((R*)-4-methyl-5-oxo-2,5-dihydrofuran-2-yloxy)methylene)-3,3a,4,8b-tetrahydro-2H-indeno[1,2-b]furan-2-one]", "values": [{"measurement": "IC50", "setting": "MDA-MB-436 [1]; Homo sapiens, MDA-MB-436, 168 h", "result": 18.8, "unit": "µM"}, {"measurement": "IC50", "setting": "MDA-MB-436 [1]", "result": 17.2, "unit": "µM"}, {"measurement": "Concentrations resulting in a significant reduction in growth compared to vehicle", "setting": "MDA-MB-436 [1]; up to 10 days", "result": "2.5-5 ppm"}, {"measurement": "IC50", "setting": "MCF-7 [2]; Homo sapiens, MCF7, 168 h, after 7 days, read-out: IC50 of long-term proliferation", "result": 18.8, "unit": "µM"}, {"measurement": "IC50 of long-term proliferation", "setting": "MCF-7 [2]; after 7 days", "result": 5.7, "unit": "ppm"}, {"measurement": "Concentrations resulting in a significant reduction in growth compared to vehicle", "setting": "MCF-7 [2]; up to 10 days", "result": "2.5-5 ppm"}, {"measurement": "Increase in the sub-G1/apoptotic fraction compared to vehicle", "setting": "MDA-MB-436 [3]", "result": 3.4, "unit": "fold"}, {"measurement": "Change in the subG1 fraction", "setting": "MCF-7 [4]", "result": "no change"}]}
{"smiles": "CC1=CC(O/C=C2/C(=O)c3c(c4cc(-c5scc6c5OCCO6)ccc4n3C)C2C)OC1=O", "note": "(stereo not drawn) [ST-362, (2E)-2-[(2,5-dihydro-4-methyl-5-oxofuran-2-yloxy)methylene]-1,2-dihydro-7-(2,3-dihydrothieno[3,4-b][1,4]dioxin-7-yl)-1,4-dimethyl-cyclopenta[b]indole-3-(4H)-one]", "values": [{"measurement": "Concentrations resulting in increased nuclear condensation and fragmentation (indicative of apoptosis)", "setting": "MDA-MB-231 cells", "result": "10-15 ppm and 5-10 ppm"}, {"measurement": "Cell culture growth", "setting": "Candida oleophila", "result": "reduction of cell culture growth"}]}
